Source: the supplement of paper PMC4862054

What was measured:
Settings in all cases: incubation time: 72 h
DU-4475 [1] = assay: normalised response (% of control), CellTox Green; higher = less cell death (100 = DMSO, 0 = benzethonium chloride kill control)
Outline: (§1)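 Every value is a normalised signal taken at one concentration of a dilution series. Compound was placed in 384-well plates at 5 concentrations in 10-fold steps over a compound-specific 10,000-fold range, and 20 µl of breast cancer cell suspension was seeded onto it. After 72 h, CellTox Green fluorescence (485/520 nm) was measured first and CellTiter-Glo luminescence second, following 10 min at room temperature. Each plate was scaled to 0.1 % DMSO (100) and a positive kill control (0).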

MFM-223 [2] = assay: as above
Outline: as §1

MDA-MB-231 [3] = assay: as above
Outline: as §1

BT-474 [4] = assay: as above
Outline: as §1

Hs578T [5] = assay: as above
Outline: as §1

HCC1599 [6] = assay: as above
Outline: as §1

CAL-148 [7] = assay: as above
Outline: as §1

HCC1143 [8] = assay: as above
Outline: as §1

MDA-MB-468 [9] = assay: as above
Outline: as §1

MDA-MB-436 [10] = assay: as above
Outline: as §1

BT-549 [11] = assay: as above
Outline: as §1

CAL-120 [12] = assay: as above
Outline: as §1

CAL-51 [13] = assay: as above
Outline: as §1

MDA-MB-453 [14] = assay: as above
Outline: as §1

CAL-85-1 [15] = assay: as above
Outline: as §1

HCC1937 [16] = assay: as above
Outline: as §1

DU-4475 [17] = assay: normalised response (% of control), CellTiter-Glo; higher = more viable cells (100 = DMSO, 0 = benzethonium chloride kill control)
Method: (§2)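 DSRT, 72 h incubation, CellTox Green / CellTiter-Glo readout. Signal is normalised to DMSO and benzethonium chloride controls. Value is the normalised response at the highest dose.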

MFM-223 [18] = assay: as above
Method: as §2

MDA-MB-231 [19] = assay: as above
Method: as §2

SK-BR-3 = assay: as above
Method: as §2

BT-474 [20] = assay: as above
Method: as §2

Hs578T [21] = assay: as above
Method: as §2

HCC1599 [22] = assay: as above
Method: as §2

CAL-148 [23] = assay: as above
Method: as §2

HCC1143 [24] = assay: as above
Method: as §2

MDA-MB-468 [25] = assay: as above
Method: as §2

MDA-MB-436 [26] = assay: as above
Method: as §2

MCF-10A [27] = assay: as above
Method: as §2

HDQ-P1 [28] = assay: as above
Method: as §2

BT-549 [29] = assay: as above
Method: as §2

CAL-120 [30] = assay: as above
Method: as §2

CAL-51 [31] = assay: as above
Method: as §2

MDA-MB-453 [32] = assay: as above
Method: as §2

CAL-85-1 [33] = assay: as above
Method: as §2

HCC1937 [34] = assay: as above
Method: as §2

MCF-10A [35] = assay: normalised response (% of control), CellTox Green; higher = less cell death (100 = DMSO, 0 = benzethonium chloride kill control)
Outline: as §1

HDQ-P1 [36] = assay: as above
Outline: as §1

| SMILES | normalised response (DU-4475 [1]) | normalised response (MFM-223 [2]) | normalised response (MDA-MB-231 [3]) | normalised response (BT-474 [4]) | normalised response (Hs578T [5]) | normalised response (HCC1599 [6]) | normalised response (CAL-148 [7]) | normalised response (HCC1143 [8]) | normalised response (MDA-MB-468 [9]) | normalised response (MDA-MB-436 [10]) | normalised response (BT-549 [11]) | normalised response (CAL-120 [12]) | normalised response (CAL-51 [13]) | normalised response (MDA-MB-453 [14]) | normalised response (CAL-85-1 [15]) | normalised response (HCC1937 [16]) | normalised response (DU-4475 [17]) | normalised response (MFM-223 [18]) | normalised response (MDA-MB-231 [19]) | normalised response (SK-BR-3) | normalised response (BT-474 [20]) | normalised response (Hs578T [21]) | normalised response (HCC1599 [22]) | normalised response (CAL-148 [23]) | normalised response (HCC1143 [24]) | normalised response (MDA-MB-468 [25]) | normalised response (MDA-MB-436 [26]) | normalised response (MCF-10A [27]) | normalised response (HDQ-P1 [28]) | normalised response (BT-549 [29]) | normalised response (CAL-120 [30]) | normalised response (CAL-51 [31]) | normalised response (MDA-MB-453 [32]) | normalised response (CAL-85-1 [33]) | normalised response (HCC1937 [34]) | normalised response (MCF-10A [35]) | normalised response (HDQ-P1 [36]) |
| --- | --- | --- | --- | --- | --- | --- | --- | --- | --- | --- | --- | --- | --- | --- | --- | --- | --- | --- | --- | --- | --- | --- | --- | --- | --- | --- | --- | --- | --- | --- | --- | --- | --- | --- | --- | --- | --- |
| Cc1cc(C(C)Nc2ccccc2)c2nc(N3CCOCC3)cc(=O)n2c1 (centres undefined) [TGX-221] (10000 nM) | 94.7% | 94.5% | 69% | 92.8% | -33.5% | 91% | 97.4% | 76.9% | 152% | 78.3% | 84.2% | 96.3% | 93.5% | 90.7% | 106% | 79.8% | 95.6% | 88.7% | 72.5% | 78% | 70.9% | 79% | 99.2% | 105% | 86.8% | 58.1% | 70.9% | 82.5% | 88.6% | 78.7% | 88.5% | 67.6% | 76.1% | 98.2% | 78.6% | – | – |
| C[C@@H]1CCN(C(=O)CC#N)C[C@@H]1N(C)c1ncnc2[nH]ccc12 [Tofacitinib] (5000 nM) | 108% | 103% | 124% | 102% | 126% | 114% | 101% | 117% | 142% | 113% | 120% | 103% | 89.2% | 110% | 63.8% | 111% | 99.4% | 104% | 114% | 106% | 98.2% | 101% | 106% | 109% | 102% | 105% | 110% | 97.2% | 102% | 105% | 99.8% | 76.6% | 105% | 109% | 100% | 105% | 113% |
| COc1cc(Nc2ncc(F)c(Nc3ccc4c(n3)NC(=O)C(C)(C)O4)n2)cc(OC)c1OC [Tamatinib] (10000 nM) | 99% | 94.1% | 108% | 103% | 104% | 106% | 65.1% | 115% | -90.8% | 94.9% | 95% | 100% | 83.7% | 103% | 64.4% | 97% | 107% | 110% | 103% | 109% | 95.6% | 102% | 91.6% | 109% | 101% | 71.2% | 95.7% | 107% | 100% | 67.4% | 94.9% | 74.1% | 112% | 97.5% | 97.5% | 103% | 111% |
| COC(=O)C[C@](O)(CCCC(C)(C)O)C(=O)O[C@@H]1C(OC)=C[C@]23CCCN2CCc2cc4c(cc2[C@H]13)OCO4 [Omacetaxine] (10000 nM) | 98.5% | 30.1% | 48.4% | 75.2% | 33.9% | 88.5% | 1.18% | 74.8% | 84.9% | 32.1% | 77% | 80.1% | 94.3% | 98.8% | -46.3% | 107% | 10.2% | 3.94% | 2.58% | 1.19% | 5.49% | 1.02% | 6.51% | 26.6% | 10.8% | 4.57% | 17.4% | 1.54% | 21.1% | 2.75% | 21.7% | 6.4% | 24.6% | 1.11% | 17.7% | -13.6% | 64.9% |
| CCCC(CCC)C(=O)O [Valproic acid] (1000000 nM) | 97% | 99.5% | 98.7% | 105% | 129% | 93.9% | 95.9% | 111% | 126% | 106% | 111% | 111% | 98.4% | 102% | 97.4% | 88.4% | 89.9% | 96.3% | 98.6% | 99.1% | 100% | 99% | 98.2% | 88.4% | 106% | 97.8% | 100% | 94.6% | 103% | 106% | 103% | 87.6% | 81.2% | 96.7% | 100% | 119% | 107% |
| Nc1nccc(-c2c(-c3ccc(F)cc3)ncn2C2CCCCC2)n1 (10000 nM) | 98.6% | 96% | 109% | 103% | 135% | 98.1% | 99.9% | 110% | 114% | 92.7% | 100% | 105% | 105% | 104% | 71.6% | 69.8% | 91.7% | 88% | 84.4% | 71.8% | 83.6% | 99.9% | 101% | 110% | 99.7% | 70.2% | 96% | 48.5% | 70.5% | 92.2% | 107% | 89.2% | 84.9% | 75.7% | 80.2% | 11.8% | 95.7% |
| CN(c1ccccc1CNc1nc(Nc2ccc3c(c2)CC(=O)N3)ncc1C(F)(F)F)S(C)(=O)=O (10000 nM) | 64.2% | 92.2% | -15.1% | 84.8% | -25.4% | 60.9% | 58.1% | 70.8% | 110% | 92.8% | 52.9% | 89.1% | 16.1% | 105% | 11.5% | 51.5% | 2.4% | 48.2% | 4.8% | 21.6% | 18.1% | 23.9% | 8.88% | 73% | 17.8% | 7.14% | 18.9% | 9.01% | 16.5% | 6.21% | 45.7% | 5.46% | 56.4% | 4.6% | 34.6% | 7.39% | 68.7% |
| FC(F)c1nc2ccccc2n1-c1nc(N2CCOCC2)nc(N2CCOCC2)n1 [ZSTK474] (10000 nM) | 96.3% | 84.7% | 97.6% | 86.6% | 101% | 88.4% | 68.1% | 90.3% | 157% | 84.2% | 73.5% | 98.6% | 70.5% | 99.1% | 82.4% | 86.7% | 67.5% | 29.5% | 43.8% | 22.4% | 44.8% | 25.9% | 71.7% | 38.7% | 37.9% | 36.6% | 40.6% | 26.2% | 33% | 21.2% | 34.6% | 16.4% | 15.9% | 20.2% | 39.1% | 106% | 99.7% |
